Test results published in patent US11492362B1, “Pyridine derivatives for the treatment of hyperproliferative diseases” (King Abdulaziz University, priority 2022, dated 2022).
Values after ≈ are worked out from the molar mass of the structure shown.

Columns and labels:
[1] = test system: HL-60 (leukemia) cell lines; test: In vitro cytotoxicity, MTT assay; assay type: cell-based; details: Homo sapiens, 72 h; HL-60, MTT, 3 days
Protocol: Cells suspended in medium (2×10^4 cells/mL) were plated in 96-well culture plates and incubated at 37° C. in a 5% CO2 incubator. After 12 h, the test sample (2 μL) was added to the cells (2×10^4) in 96-well plates and cultured at 37° C. for 3 days. The cultured cells were mixed with 20 μL of MTT solution and incubated for 4 h at 37° C. The supernatant was carefully removed from each well and 100 μL of DMSO was added to each well to dissolve the formazan crystals which were formed by the cellular reduction of MTT. After mixing with a mechanical plate mixer, the absorbance of each well was measured by a microplate reader using a test wavelength of 570 nm. The results were expressed as the IC50 (μM), which induces a 50% inhibition of cell growth of the treated cells when compared to the growth of control cells. Each experiment was performed at least 3 times. There was a good reproducibility between the replicate wells with standard error [46].
In vitro cytotoxicity of the synthesized compounds 4, 6, and 7 was determined using the MTT assay against HL-60 (leukemia) cell lines. Doxorubicin (Doxo) one of the most efficient anticancer agentd was utilized as a reference compound in this study.

Leukemia HL-60 cell line = test: Cell cycle analysis, PI staining and DNA flow cytometry; assay type: cell-based, human; details: HL-60, compound at its IC50 concentration
Protocol: (§1) For cell cycle analysis, cell pellets were fixed with 70% ethanol on ice for 15 min and collected again. The collected pellets were incubated with propidium iodide (PI) staining solution ([…], 0.1 mg/mL RNaseA, 0.05% Triton X-100) at room temperature for 1 hour and analyzed by Gallios® flow cytometer (Beckman Coulter, Brea, Calif., USA). Apoptosis detection was performed by FITC Annexin V/PI commercial kit (Becton Dickenson, Franklin Lakes, N.J., USA) following the manufacturer's protocol. The samples were analyzed by fluorescence-activated cell sorting (FACS) with a Gallios® flow cytometer (Beckman Coulter, Brea, Calif., USA) within 1 h after staining. Data were analyzed using Kaluzav® 1.2 (Beckman Coulter).
Cell cycle analysis was assessed in Leukemia HL-60 cell line after staining the nuclei with propidium iodide (PI) followed by DNA flow cytometry analysis.

Leukemia HL-60 cells = test: Annexin V-FITC/PI apoptosis detection; assay type: cell-based, human; details: HL-60, Annexin V-FITC/PI
Protocol: as §1
Moreover, compound 4 increased the percentage of late apoptotic cells by 43.07-more than untreated control.

[2] = test system: caspase 3/7 in Leukemia HL-60 cells; test: Activated caspase 3/7 assay; assay type: cell-based, human; details: HL-60, IC50 concentration, 24 h, flow cytometry; untreated control 0.54%
Protocol: Activities of caspases-3 and -7 were measured using DRG Caspase-3 (human) ELISA (EIA-4860) kit (DRG International Inc., USA), Invitrogen. Caspase-7 (Active) (human) ELISA kit, Catalog #KHO1091 (96 tests) (Invitrogen Corporation, USA) according to the manufacturer's instructions.
The activation of caspase 3/7 was determined in compound 4 treated Leukemia HL-60 cells at IC50 concentration using green flow cytometry assay for 24 h.

HL-60 = test: Confluency analysis; assay type: cell-based, human; details: HL-60, 50 μg/mL

COc1cccc2c1C(=O)c1c(O)c3c(c(O)c1C2=O)C[C@@](O)(C(=O)CO)C[C@@H]3O[C@H]1C[C@H](N)[C@H](O)[C@H](C)O1 [Dox, Doxorubicin, reference compound]
IC50 [1]: 2.2 ± 0.08 µg/mL (≈ 4.05 µM)

c1cc(-c2ccn3cnnc3n2)nc(-c2ccn3cnnc3n2)c1 [Compound 4, 2,6-bis([1,2,4]triazolo[4,3-a]pyrimidin-7-yl)pyridine]
IC50 [1]: 3.28 ± 0.13 µg/mL (≈ 10.4 µM)
percentage of cells at pre-G1 peak (Leukemia HL-60 cell line; control 1.42%): 19.32%
cell percentage in the G2/M phase (Leukemia HL-60 cell line; untreated control 16.80%): 51.84%
cell survival percentage in comparison with untreated control (Leukemia HL-60 cells): sharp decrease
increase of percentage of early apoptotic cells versus untreated control (Leukemia HL-60 cells): 8.14 fold
increase of percentage of late apoptotic cells versus untreated control (Leukemia HL-60 cells): 43.07
level of caspase 3/7 percentage [2]: 10.04%
cell morphology in the image (HL-60): round, high-contrast objects

CN(C)C=CC(=O)c1cccc(C(=O)C=CN(C)C)n1 [Compound 2, 2,6-Bis(3-dimethylamino-1-oxoprop-2-en-yl)pyridine]
melting point: 236.4 to 237.2 °C

CN(C)/C=C/C(=O)c1cccc(C(=O)/C=C\Nc2sc3c(c2C#N)CCCC3)n1 [Compound 6, 2-(((Z)-3-(6-((E)-3-(dimethylamino)acryloyl)pyridin-2-yl)-3-oxoprop-1-en-1-yl)amino)-4,5,6,7-tetrahydrobenzo[b]thiophene-3-carbonitrile]
IC50 [1]: 3.66 ± 0.11 µg/mL (≈ 9 µM)

N#Cc1c(N/C=C\C(=O)c2cccc(C(=O)/C=C\Nc3sc4c(c3C#N)CCCC4)n2)sc2c1CCCC2 [Compound 7, 2,2′-(((1Z,1′Z)-pyridine-2,6-diylbis(3-oxoprop-1-ene-3,1-diyl))bis(azanediyl))bis(4,5,6,7-tetrahydrobenzo[b]thiophene-3-carbonitrile)]
IC50 [1]: 28.5 ± 1.56 µg/mL (≈ 52.9 µM)
